Assay results reported in patent publication US5641781A, “Topical ophthalmic composition comprising a 2-[4-(azolylbutyl)piperazinylmethyl]benzimidazole derivative, in particular for the treatment of allergic conjunctivitis” (Laboratorios Del Dr. Esteve, S.A., priority 1995, dated 1997).

Tested on: guinea pig conjunctiva
Test: Microvascular permeability in guinea pig conjunctiva induced by histamine (extravasation of Evans blue dye), topical ocular administration
Assay type: in vivo, guinea pig (male VAF Dunkin/Hartley)
Conditions: for % change (degree of permeability): topical, vs vehicle; for ED50 (concentration producing 50% inhibition of vascular permeability): Table 3
Description: The ocular antihistaminic topical effect of the products which form the subject of the present invention was evaluated by means of a model of microvascular permeability in guinea pig conjunctiva, induced by histamine. In this animal model of ocular antiallergic activity, the power, the fifty percent effective dose and the duration of action are measured.
Microvascular Permeability in Guinea Pig Conjunctiva Induced by Histamine (Extravasation of Evans Blue Dye)
Male VAF Dunkin/Hartley guinea pigs (6 per group) are injected intravenously, into the marginal vein of the ear, with 1.0 ml of Evans blue (1.0 mg/ml). Approximately 15 minutes after injection of the dye, 20 μl of the appropriate concentration of the compound of Example 1 or of the vehicle are applied topically to an eye of each of the animals. 2 minutes, 30 minutes and 6 hours after the topical application, the guinea pigs are anaesthetized and histamine (300 ng/10 μl) is administered to them subconjunctivally. Thirty minutes later the animals are sacrificed by inhalation of CO2 and the area of extravasation of the Evans blue is measured. The area of the blue dye is multiplied by the intensity of the colour, graded from 1 to 6, in order to produce a value of permeability for each animal (Yauni et al., Int. Arch. Allergy Immunol., 1993, 101, 102-106). The values obtained by the groups treated are then compared with those obtained with the group treated with the vehicle using Dunnett's "t" test (Dunnett C. W. "A multiple comparison procedure for comparing treatments with a control", J. Am Star. Assoc 1955, 50, 1096-1121)
This inhibition is observed in a range of concentrations from 0.1% to 0.0001% weight/volume.

Structure (SMILES): CCOCCn1c(CN2CCN(CCCCn3cccn3)CC2)nc2ccccc21 [Example 1]
- % change (degree of permeability) (0.00001 % (w/v), 30'): -6%
- % change (degree of permeability) (0.00001 % (w/v), 6 h): -3%
- % change (degree of permeability) (0.0001 % (w/v), 30'): -45%
- % change (degree of permeability) (0.0001 % (w/v), 6 h): -36%
- % change (degree of permeability) (0.001 % (w/v), 2'): -41%
- % change (degree of permeability) (0.001 % (w/v), 30'): -66%
- % change (degree of permeability) (0.001 % (w/v), 6 h): -66%
- % change (degree of permeability) (0.01 % (w/v), 2'): -66%
- % change (degree of permeability) (0.01 % (w/v), 30'): -85%
- % change (degree of permeability) (0.01 % (w/v), 6 h): -91%
- % change (degree of permeability) (0.1 % (w/v), 2'): -75%
- % change (degree of permeability) (0.1 % (w/v), 30'): -100%
- % change (degree of permeability) (0.1 % (w/v), 6 h): -100%
- ED50 (concentration producing 50% inhibition of vascular permeability) (2'): 0.0024 % w/v
- ED50 (concentration producing 50% inhibition of vascular permeability) (30'): 0.00035 % w/v
- ED50 (concentration producing 50% inhibition of vascular permeability) (6 h): 0.00043 % w/v
- ED50 (concentration which produces a 50% inhibition of the vascular permeability) (at 2 minutes): 0.0024 w/v
- ED50 (concentration which produces a 50% inhibition of the vascular permeability) (at 30 minutes): 0.00035 w/v
- ED50 (concentration which produces a 50% inhibition of the vascular permeability) (at 8 hours): 0.00043 w/v
- antihistaminic activity and duration of action (in words) (ocular topical administration): powerful antihistaminic activity accompanied by an exceptionally long duration of action
- inhibition of vascular permeability induced by histamine (in words) (ocular topical administration): inhibits, significantly and in a dose-dependent manner
